US20070173499A1 (priority 2004, published 2007)
Like-named read-outs stand apart in the source and are kept apart here. One block for each compound: values may come before it.

How the values were obtained:
[1] = target: T1, 5-HT2A receptor (Homo sapiens, UniProt P28223); experiment: radioligand binding assay for 5-HT2A receptor ([3H]-ketanserin)
T1 construct: expressed in transfected cells; host or cells: CHO-K1 (or COS-7); alternatively human cortex tissue
Method: (§1) The effect of the compounds of the present invention on the neurochemical steady state was determined by in vitro investigations such as a radionuclide-marked radioligand binding assay for 5-HT2A (Bonhaus D. W. Br. J. Pharmacol. 1995, 115:622; Saucier C. J. Neurochem. 1997, 68:1998) and 5-HT2C receptors (Wolf W. A. J. Neurochem. 1997, 69:1449), in vitro binding assay for σ1 receptor (Thomson W. and Donn R. Arthritis Res. 2002, 4: 302-306) and by in vivo investigations in a tail suspension test (Vogel H. G. and Vogel W. H. Drug Discovery and Evaluation Pharmacological Assays, Springer 1997, 304), in amphethamine-induced hyperlocomotion in mice (Millan M. J. et al, 1998 J Pharmacol. Exp. Ther. 287: 167-186), in a forced swim test in mice (Porsolt R. D. et al. Arch. Int. Pharmacodyn. 1977, 229:327-336), in meta-chlorophenyl piperazine (m-CPP) test on rats (Drug Dev. Res. 1989, 18:119-144), and in apomorphine, tryptamine and norepinephrine (ATN) test in rats (Arch. Int. Pharmacodyn. 1977, 227:238-253).
(§2) A small concentration of a radioligand having a great affinity for binding to a receptor was incubated with a tissue sample enriched with a certain receptor (1-5 mg of tissue) in a buffered medium (0.2-5 mL). Recombinant human HT2A and HT2C receptors were expressed in CHO-K1 or COS-7 cells and were also used for competitive binding. During incubation the radioligand bound to the receptor. When a binding balance was achieved, the receptors to which the radioligand was bound were separated from those to which said ligand was not bound, and the radioactivity of the receptor/radioligand complex was measured. The interaction of the tested compounds with receptors was tested in competitive binding experiments. Various concentrations of tested compounds were added to the incubation mixture containing a prepared tissue enriched with corresponding receptors and the radioligand. The radioligand binding was inhibited by the test compounds proportionally to the affinity of a certain compound for the receptor and to the concentration of the compound.
(§3) The radioligand used for the determination of binding to 5-HT2A receptor was [^3H]-ketanserin and the tissue used was human cortex or recombinant 5-HT2A receptor expressed in CHO-K1 cells. The radioligand used for the determination of binding to 5-HT2C receptor was [^3H]-mesulergine and the tissue used was choroid plexus or recombinant 5-HT2C receptor expressed in CHO-K1 cells.

[2] = target: T2, 5-HT2C receptor (Homo sapiens, UniProt P28335); experiment: radioligand binding assay for 5-HT2C receptor ([3H]-mesulergine)
T2 construct: expressed in transfected cells; host or cells: CHO-K1 (or COS-7); alternatively choroid plexus tissue
T2 sequence (P28335 33-458): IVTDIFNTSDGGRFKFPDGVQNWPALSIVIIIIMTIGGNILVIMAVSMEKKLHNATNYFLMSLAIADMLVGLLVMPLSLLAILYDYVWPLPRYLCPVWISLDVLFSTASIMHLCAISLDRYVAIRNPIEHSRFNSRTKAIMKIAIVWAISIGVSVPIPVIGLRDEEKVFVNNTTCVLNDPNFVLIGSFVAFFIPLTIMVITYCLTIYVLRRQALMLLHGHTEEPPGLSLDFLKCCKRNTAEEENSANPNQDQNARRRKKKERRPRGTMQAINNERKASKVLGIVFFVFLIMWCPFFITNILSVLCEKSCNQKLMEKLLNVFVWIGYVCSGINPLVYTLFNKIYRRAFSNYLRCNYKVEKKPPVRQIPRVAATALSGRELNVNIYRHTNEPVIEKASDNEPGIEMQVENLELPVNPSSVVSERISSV
Method: as §1, §2, §3

[3] = target: T3, σ1 receptor (Homo sapiens, UniProt Q99720); experiment: in vitro binding assay for σ1 receptor, Jurkat cell membranes, [3H]haloperidol; conditions: [3H]haloperidol 10 nM
T3 construct: endogenous in cells; host or cells: Jurkat cells (membrane fraction)
Method: as §1, with “227:238-253). […]” for “227:238-253).”
Binding of different radiolabeled ligans to Jurkat cell membranes was measured as described previously (Ramamoorthy et al., 1995). […]
Membranes were incubated with ligands in phosphate buffer for 3 hours at room temperature. After filter had been washed, radioactivity associated with the filter was determined by liquid scintillation spectrometry.

T1 sequence (P28223 whole entry): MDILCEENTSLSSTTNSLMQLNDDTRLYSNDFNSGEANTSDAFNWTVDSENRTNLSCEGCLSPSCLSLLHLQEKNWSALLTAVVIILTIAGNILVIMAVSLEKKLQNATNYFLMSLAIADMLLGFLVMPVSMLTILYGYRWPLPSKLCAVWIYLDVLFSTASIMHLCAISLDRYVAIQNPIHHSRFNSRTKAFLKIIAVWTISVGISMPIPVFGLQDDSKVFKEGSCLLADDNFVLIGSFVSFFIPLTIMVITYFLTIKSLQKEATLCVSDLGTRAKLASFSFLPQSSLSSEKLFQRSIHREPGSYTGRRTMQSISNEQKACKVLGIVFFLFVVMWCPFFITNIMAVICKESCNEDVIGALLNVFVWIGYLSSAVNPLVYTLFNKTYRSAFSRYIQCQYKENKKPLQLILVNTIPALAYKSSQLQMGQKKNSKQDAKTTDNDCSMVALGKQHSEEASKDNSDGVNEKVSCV
T3 sequence (Q99720 whole entry): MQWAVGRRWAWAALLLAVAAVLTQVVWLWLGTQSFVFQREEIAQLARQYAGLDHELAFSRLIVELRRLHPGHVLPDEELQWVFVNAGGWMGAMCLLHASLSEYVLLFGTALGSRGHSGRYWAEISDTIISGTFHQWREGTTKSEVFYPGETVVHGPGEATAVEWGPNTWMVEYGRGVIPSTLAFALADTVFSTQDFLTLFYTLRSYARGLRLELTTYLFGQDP

Compound: CN(C)CCCOCc1cc2c(s1)-c1cc3ccccc3cc1Sc1ccccc1-2
IC50 [1]: < 200 nM
Ki [1]: < 100 nM
IC50 [2]: < 200 nM
Ki [2]: < 100 nM

IC50 ([3]; read-out: binding affinity to σ1 receptor expressed as IC50): < 200 nM
Ki ([3]; read-out: binding affinity to σ1 receptor, Ki): < 100 nM
Compound: CC(CN(C)C)OCc1cc2c(s1)-c1cc3c(cc1Oc1ccccc1-2)CCCC3 (stereo not shown) [dimethyl-[2-(10,11,12,13-tetrahydro-8-oxa-1-thia-benzo[e]naphtho[3,2-h]azulen-2-ylmethoxy)-propyl]-amine]

IC50 ([1]; [3H]-ketanserin, human cortex or recombinant 5-HT2A receptor in CHO-K1 cells, read-out: binding affinity to 5-HT2A serotonin receptor expressed as IC50): < 200 nM
Ki ([1]; [3H]-ketanserin, human cortex or recombinant 5-HT2A receptor in CHO-K1 cells, read-out: binding affinity to 5-HT2A serotonin receptor, Ki): < 100 nM
IC50 ([2]; [3H]-mesulergine, choroid plexus or recombinant 5-HT2C receptor in CHO-K1 cells, read-out: binding affinity to 5-HT2C serotonin receptor expressed as IC50): < 200 nM
Ki ([2]; [3H]-mesulergine, choroid plexus or recombinant 5-HT2C receptor in CHO-K1 cells, read-out: binding affinity to 5-HT2C serotonin receptor, Ki): < 100 nM
Compound: CN(C)CCCOCc1cc2c(s1)-c1ccc3ccccc3c1Sc1ccccc1-2 [dimethyl-[3-(3,10-dithia-benzo[e]naphtho[1,2-h]azulen-2-ylmethoxy)-propyl]-amine]
